# Reference: US8192962B2, “Processes for detecting toxic substances” (Daikin Industries, Ltd., priority 2001, dated 2012)
# Test system: Genes belonging to other category
# Experiment: DNA chip mRNA expression in yeast, genes belonging to other category (Table 9)
# Type: cell-based, Saccharomyces cerevisiae S288C
# Method in brief: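 Values are treated/untreated fluorescence ratios from a whole-genome yeast DNA chip hybridized over 12 hours at 65° C with Cy3- or Cy5-labelled cDNA from poly(A) mRNA. Log-phase S288C yeast in YPD at 25° C had received a single toxic chemical for two hours, dosed to slow growth without killing.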
structure (smiles),measurement,setting,value
"COc1cc(CNC(=O)CCCCC=CC(C)C)ccc1O [(12), 8-methyl-N-vanillyl-6-nonenamide]",The level of expressed mRNA in the presence of chemical substance/The level of expressed mRNA in the absence of chemical substance,yeast gene YJL116C,1.1
same,The level of expressed mRNA in the presence of chemical substance/The level of expressed mRNA in the absence of chemical substance,yeast gene YJL164C,1.0
same,The level of expressed mRNA in the presence of chemical substance/The level of expressed mRNA in the absence of chemical substance,yeast gene YJL210W,1.0
same,The level of expressed mRNA in the presence of chemical substance/The level of expressed mRNA in the absence of chemical substance,yeast gene YJR004C,0.8
same,The level of expressed mRNA in the presence of chemical substance/The level of expressed mRNA in the absence of chemical substance,yeast gene YJR049C,1.0
same,The level of expressed mRNA in the presence of chemical substance/The level of expressed mRNA in the absence of chemical substance,yeast gene YJR086W,0.8
same,The level of expressed mRNA in the presence of chemical substance/The level of expressed mRNA in the absence of chemical substance,yeast gene YJR091C,0.8
same,The level of expressed mRNA in the presence of chemical substance/The level of expressed mRNA in the absence of chemical substance,yeast gene YKL008C,1.5
same,The level of expressed mRNA in the presence of chemical substance/The level of expressed mRNA in the absence of chemical substance,yeast gene YKL013C,0.7
same,The level of expressed mRNA in the presence of chemical substance/The level of expressed mRNA in the absence of chemical substance,yeast gene YKL039W,0.9
same,The level of expressed mRNA in the presence of chemical substance/The level of expressed mRNA in the absence of chemical substance,yeast gene YKL041W,0.8
same,The level of expressed mRNA in the presence of chemical substance/The level of expressed mRNA in the absence of chemical substance,yeast gene YKL093W,0.9
same,The level of expressed mRNA in the presence of chemical substance/The level of expressed mRNA in the absence of chemical substance,yeast gene YKL096W,0.3
same,The level of expressed mRNA in the presence of chemical substance/The level of expressed mRNA in the absence of chemical substance,yeast gene YKL097W-A,0.7
same,The level of expressed mRNA in the presence of chemical substance/The level of expressed mRNA in the absence of chemical substance,yeast gene YKL117W,1.0
same,The level of expressed mRNA in the presence of chemical substance/The level of expressed mRNA in the absence of chemical substance,yeast gene YKL139W,0.8
same,The level of expressed mRNA in the presence of chemical substance/The level of expressed mRNA in the absence of chemical substance,yeast gene YKL165C,2.4
same,The level of expressed mRNA in the presence of chemical substance/The level of expressed mRNA in the absence of chemical substance,yeast gene YKL193C,0.9
same,The level of expressed mRNA in the presence of chemical substance/The level of expressed mRNA in the absence of chemical substance,yeast gene YKR014C,1.1
same,The level of expressed mRNA in the presence of chemical substance/The level of expressed mRNA in the absence of chemical substance,yeast gene YKR102W,0.8
same,The level of expressed mRNA in the presence of chemical substance/The level of expressed mRNA in the absence of chemical substance,yeast gene YLR078C,1.0
same,The level of expressed mRNA in the presence of chemical substance/The level of expressed mRNA in the absence of chemical substance,yeast gene YLR080W,0.8
same,The level of expressed mRNA in the presence of chemical substance/The level of expressed mRNA in the absence of chemical substance,yeast gene YLR093C,1.0
same,The level of expressed mRNA in the presence of chemical substance/The level of expressed mRNA in the absence of chemical substance,yeast gene YLR118C,1.0
same,The level of expressed mRNA in the presence of chemical substance/The level of expressed mRNA in the absence of chemical substance,yeast gene YLR120C,1.6
same,The level of expressed mRNA in the presence of chemical substance/The level of expressed mRNA in the absence of chemical substance,yeast gene YLR136C,1.3
same,The level of expressed mRNA in the presence of chemical substance/The level of expressed mRNA in the absence of chemical substance,yeast gene YLR178C,2.2
same,The level of expressed mRNA in the presence of chemical substance/The level of expressed mRNA in the absence of chemical substance,yeast gene YLR250W,1.0
same,The level of expressed mRNA in the presence of chemical substance/The level of expressed mRNA in the absence of chemical substance,yeast gene YLR251W,0.8
same,The level of expressed mRNA in the presence of chemical substance/The level of expressed mRNA in the absence of chemical substance,yeast gene YLR327C,1.4
same,The level of expressed mRNA in the presence of chemical substance/The level of expressed mRNA in the absence of chemical substance,yeast gene YLR340W,0.9
same,The level of expressed mRNA in the presence of chemical substance/The level of expressed mRNA in the absence of chemical substance,yeast gene YLR356W,1.5
same,The level of expressed mRNA in the presence of chemical substance/The level of expressed mRNA in the absence of chemical substance,yeast gene YLR362W,0.8
same,The level of expressed mRNA in the presence of chemical substance/The level of expressed mRNA in the absence of chemical substance,yeast gene YLR391W,1.0
same,The level of expressed mRNA in the presence of chemical substance/The level of expressed mRNA in the absence of chemical substance,yeast gene YLR429W,1.1
same,The level of expressed mRNA in the presence of chemical substance/The level of expressed mRNA in the absence of chemical substance,yeast gene YMR004W,1.0
same,The level of expressed mRNA in the presence of chemical substance/The level of expressed mRNA in the absence of chemical substance,yeast gene YMR053C,0.9
same,The level of expressed mRNA in the presence of chemical substance/The level of expressed mRNA in the absence of chemical substance,yeast gene YMR091C,0.8
same,The level of expressed mRNA in the presence of chemical substance/The level of expressed mRNA in the absence of chemical substance,yeast gene YMR092C,0.9
same,The level of expressed mRNA in the presence of chemical substance/The level of expressed mRNA in the absence of chemical substance,yeast gene YMR094W,0.9
same,The level of expressed mRNA in the presence of chemical substance/The level of expressed mRNA in the absence of chemical substance,yeast gene YMR104C,1.0
same,The level of expressed mRNA in the presence of chemical substance/The level of expressed mRNA in the absence of chemical substance,yeast gene YMR219W,1.5
same,The level of expressed mRNA in the presence of chemical substance/The level of expressed mRNA in the absence of chemical substance,yeast gene YMR226C,1.1
same,The level of expressed mRNA in the presence of chemical substance/The level of expressed mRNA in the absence of chemical substance,yeast gene YMR238W,1.0
same,The level of expressed mRNA in the presence of chemical substance/The level of expressed mRNA in the absence of chemical substance,yeast gene YMR275C,0.7
same,The level of expressed mRNA in the presence of chemical substance/The level of expressed mRNA in the absence of chemical substance,yeast gene YMR276W,1.2
same,The level of expressed mRNA in the presence of chemical substance/The level of expressed mRNA in the absence of chemical substance,yeast gene YMR314W,1.0
same,The level of expressed mRNA in the presence of chemical substance/The level of expressed mRNA in the absence of chemical substance,yeast gene YNL006W,0.7
same,The level of expressed mRNA in the presence of chemical substance/The level of expressed mRNA in the absence of chemical substance,yeast gene YNL007C,0.7
same,The level of expressed mRNA in the presence of chemical substance/The level of expressed mRNA in the absence of chemical substance,yeast gene YNL015W,2.8
same,The level of expressed mRNA in the presence of chemical substance/The level of expressed mRNA in the absence of chemical substance,yeast gene YNL093W,1.1
same,The level of expressed mRNA in the presence of chemical substance/The level of expressed mRNA in the absence of chemical substance,yeast gene YNL147W,0.8
same,The level of expressed mRNA in the presence of chemical substance/The level of expressed mRNA in the absence of chemical substance,yeast gene YNL333W,1.0
same,The level of expressed mRNA in the presence of chemical substance/The level of expressed mRNA in the absence of chemical substance,yeast gene YNL335W,0.8
same,The level of expressed mRNA in the presence of chemical substance/The level of expressed mRNA in the absence of chemical substance,yeast gene YNR010W,0.8
same,The level of expressed mRNA in the presence of chemical substance/The level of expressed mRNA in the absence of chemical substance,yeast gene YNR037C,0.7
same,The level of expressed mRNA in the presence of chemical substance/The level of expressed mRNA in the absence of chemical substance,yeast gene YNR069C,1.2
same,The level of expressed mRNA in the presence of chemical substance/The level of expressed mRNA in the absence of chemical substance,yeast gene YOL013C,1.1
same,The level of expressed mRNA in the presence of chemical substance/The level of expressed mRNA in the absence of chemical substance,yeast gene YOL164W,1.1
same,The level of expressed mRNA in the presence of chemical substance/The level of expressed mRNA in the absence of chemical substance,yeast gene YOR036W,1.2
same,The level of expressed mRNA in the presence of chemical substance/The level of expressed mRNA in the absence of chemical substance,yeast gene YOR117W,2.5
same,The level of expressed mRNA in the presence of chemical substance/The level of expressed mRNA in the absence of chemical substance,yeast gene YOR124C,0.9
same,The level of expressed mRNA in the presence of chemical substance/The level of expressed mRNA in the absence of chemical substance,yeast gene YOR132W,0.7
same,The level of expressed mRNA in the presence of chemical substance/The level of expressed mRNA in the absence of chemical substance,yeast gene YOR157C,1.3
same,The level of expressed mRNA in the presence of chemical substance/The level of expressed mRNA in the absence of chemical substance,yeast gene YOR181W,0.8
same,The level of expressed mRNA in the presence of chemical substance/The level of expressed mRNA in the absence of chemical substance,yeast gene YOR185C,1.5
same,The level of expressed mRNA in the presence of chemical substance/The level of expressed mRNA in the absence of chemical substance,yeast gene YOR198C,1.5
same,The level of expressed mRNA in the presence of chemical substance/The level of expressed mRNA in the absence of chemical substance,yeast gene YOR229W,0.8
same,The level of expressed mRNA in the presence of chemical substance/The level of expressed mRNA in the absence of chemical substance,yeast gene YOR259C,0.8
same,The level of expressed mRNA in the presence of chemical substance/The level of expressed mRNA in the absence of chemical substance,yeast gene YOR261C,0.9
same,The level of expressed mRNA in the presence of chemical substance/The level of expressed mRNA in the absence of chemical substance,yeast gene YOR265W,0.8
same,The level of expressed mRNA in the presence of chemical substance/The level of expressed mRNA in the absence of chemical substance,yeast gene YOR288C,1.4
same,The level of expressed mRNA in the presence of chemical substance/The level of expressed mRNA in the absence of chemical substance,yeast gene YOR355W,0.9
same,The level of expressed mRNA in the presence of chemical substance/The level of expressed mRNA in the absence of chemical substance,yeast gene YOR383C,1.1
same,The level of expressed mRNA in the presence of chemical substance/The level of expressed mRNA in the absence of chemical substance,yeast gene YPL089C,0.7
same,The level of expressed mRNA in the presence of chemical substance/The level of expressed mRNA in the absence of chemical substance,yeast gene YPL109C,0.9
same,The level of expressed mRNA in the presence of chemical substance/The level of expressed mRNA in the absence of chemical substance,yeast gene YPL149W,0.9
same,The level of expressed mRNA in the presence of chemical substance/The level of expressed mRNA in the absence of chemical substance,yeast gene YPL154C,1.5
same,The level of expressed mRNA in the presence of chemical substance/The level of expressed mRNA in the absence of chemical substance,yeast gene YPL230W,1.0
same,The level of expressed mRNA in the presence of chemical substance/The level of expressed mRNA in the absence of chemical substance,yeast gene YPR066W,0.8
same,The level of expressed mRNA in the presence of chemical substance/The level of expressed mRNA in the absence of chemical substance,yeast gene YPR103W,1.2
same,The level of expressed mRNA in the presence of chemical substance/The level of expressed mRNA in the absence of chemical substance,yeast gene YPR108W,1.0
same,The level of expressed mRNA in the presence of chemical substance/The level of expressed mRNA in the absence of chemical substance,yeast gene YPR140W,0.8
same,The level of expressed mRNA in the presence of chemical substance/The level of expressed mRNA in the absence of chemical substance,yeast gene YPR185W,0.8
